The CheMixHub viscosity set

Test: xn = mol fraction of the nth substance listed

CCNc1ccccc1 + COC(C)(C)C
viscosity [mPa·s], 101 kPa
Settings | 293.15 K | 298.15 K | 303.15 K | 308.15 K | 313.15 K | 318.15 K
x1 = 0.0583 | 0.428 | 0.412 | 0.395 | 0.374 | 0.351 | 0.325
x1 = 0.1047 | 0.465 | 0.445 | 0.425 | 0.401 | 0.376 | 0.348
x1 = 0.1493 | 0.503 | 0.479 | 0.455 | 0.429 | 0.402 | 0.371
x1 = 0.2021 | 0.552 | 0.523 | 0.495 | 0.465 | 0.434 | 0.4
x1 = 0.2544 | 0.605 | 0.57 | 0.537 | 0.503 | 0.469 | 0.432
x1 = 0.3064 | 0.663 | 0.621 | 0.583 | 0.544 | 0.506 | –
x1 = 0.3508 | 0.718 | 0.668 | 0.625 | 0.582 | 0.54 | –
x1 = 0.4031 | 0.787 | 0.728 | 0.678 | 0.63 | 0.584 | –
x1 = 0.45 | 0.855 | 0.787 | 0.73 | 0.677 | 0.625 | –
x1 = 0.5021 | 0.938 | 0.858 | 0.793 | 0.733 | 0.675 | –
x1 = 0.5506 | 1.022 | 0.931 | 0.857 | 0.789 | 0.725 | –
x1 = 0.6036 | 1.123 | 1.017 | 0.932 | 0.856 | 0.784 | –
x1 = 0.6519 | 1.225 | 1.103 | 1.006 | 0.921 | 0.843 | –
x1 = 0.701 | 1.337 | 1.197 | 1.089 | 0.993 | 0.907 | –
x1 = 0.7521 | 1.465 | 1.304 | 1.181 | 1.074 | 0.979 | –
x1 = 0.7985 | 1.592 | 1.409 | 1.271 | 1.153 | 1.049 | –
x1 = 0.8501 | 1.745 | 1.536 | 1.38 | 1.247 | 1.132 | –
x1 = 0.9006 | 1.909 | 1.67 | 1.493 | 1.346 | 1.218 | –
x1 = 0.949 | 2.081 | 1.81 | 1.612 | 1.448 | 1.306 | –

CC(=O)O + O
Settings | viscosity [mPa·s]
293.15 K, 101 kPa, x1 = 0.0322 | 1.205
293.15 K, 101 kPa, x1 = 0.0731 | 1.433
293.15 K, 101 kPa, x1 = 0.1134 | 1.649
293.15 K, 101 kPa, x1 = 0.1667 | 1.892
293.15 K, 101 kPa, x1 = 0.2308 | 2.14
293.15 K, 101 kPa, x1 = 0.3102 | 2.385
293.15 K, 101 kPa, x1 = 0.4112 | 2.607
293.15 K, 101 kPa, x1 = 0.7286 | 2.39
293.15 K, 101.33 kPa, x1 = 0.03226 | 1.237
293.15 K, 101.33 kPa, x1 = 0.1139 | 1.696
293.15 K, 101.33 kPa, x1 = 0.2308 | 2.188
293.15 K, 101.33 kPa, x1 = 0.4118 | 2.686
293.15 K, 101.33 kPa, x1 = 0.5011 | 2.784
293.15 K, 101.33 kPa, x1 = 0.5454 | 2.781
293.15 K, 101.33 kPa, x2 = 0.0132 | 1.455
295.3 K, 101.33 kPa, x1 = 0.0321 | 1.135
298.15 K, 101 kPa, x1 = 0.0322 | 1.073
298.15 K, 101 kPa, x1 = 0.0731 | 1.27
298.15 K, 101 kPa, x1 = 0.1134 | 1.452
298.15 K, 101 kPa, x1 = 0.1667 | 1.644
298.15 K, 101 kPa, x1 = 0.2308 | 1.866
298.15 K, 101 kPa, x1 = 0.3102 | 2.086
298.15 K, 101 kPa, x1 = 0.4112 | 2.272
298.15 K, 101 kPa, x1 = 0.5449 | 2.353
298.15 K, 101 kPa, x1 = 0.7286 | 2.105
298.15 K, 101.33 kPa, x1 = 0.016 | 0.988
298.15 K, 101.33 kPa, x1 = 0.034 | 1.08
298.15 K, 101.33 kPa, x1 = 0.0684 | 1.232
298.15 K, 101.33 kPa, x1 = 0.07 | 1.254
298.15 K, 101.33 kPa, x1 = 0.1242 | 1.437
298.15 K, 101.33 kPa, x1 = 0.1648 | 1.633
298.15 K, 101.33 kPa, x1 = 0.2268 | 1.824
298.15 K, 101.33 kPa, x1 = 0.2289 | 1.867
298.15 K, 101.33 kPa, x1 = 0.2844 | 1.986
298.15 K, 101.33 kPa, x1 = 0.3218 | 2.091
298.15 K, 101.33 kPa, x1 = 0.3273 | 2.103
298.15 K, 101.33 kPa, x1 = 0.4187 | 2.248
298.15 K, 101.33 kPa, x1 = 0.436 | 2.333
298.15 K, 101.33 kPa, x1 = 0.4699 | 2.305
298.15 K, 101.33 kPa, x1 = 0.5177 | 2.374
298.15 K, 101.33 kPa, x1 = 0.5367 | 2.254
298.15 K, 101.33 kPa, x1 = 0.737 | 2.06
298.15 K, 101.33 kPa, x1 = 0.8576 | 1.689
298.15 K, 101.33 kPa, x1 = 0.9548 | 1.223
300.27 K, 101.33 kPa, x1 = 0.03428 | 1.014
303.15 K, 101 kPa, x1 = 0.0322 | 0.953
303.15 K, 101 kPa, x1 = 0.0731 | 1.12
303.15 K, 101 kPa, x1 = 0.1134 | 1.276
303.15 K, 101 kPa, x1 = 0.1667 | 1.452
303.15 K, 101 kPa, x1 = 0.2308 | 1.634
303.15 K, 101 kPa, x1 = 0.3102 | 1.816
303.15 K, 101 kPa, x1 = 0.4112 | 1.977
303.15 K, 101 kPa, x1 = 0.7286 | 1.847
303.55 K, 101.33 kPa, x1 = 0.0321 | 0.956
303.65 K, 101.33 kPa, x1 = 0.03428 | 0.939
308.15 K, 101 kPa, x1 = 0.0322 | 0.855
308.15 K, 101 kPa, x1 = 0.0731 | 1.003
308.15 K, 101 kPa, x1 = 0.1134 | 1.135
308.15 K, 101 kPa, x1 = 0.1667 | 1.289
308.15 K, 101 kPa, x1 = 0.2308 | 1.447
308.15 K, 101 kPa, x1 = 0.3102 | 1.612
308.15 K, 101 kPa, x1 = 0.4112 | 1.76
308.15 K, 101 kPa, x1 = 0.5449 | 1.813
308.15 K, 101 kPa, x1 = 0.7286 | 1.653
313.15 K, 100 kPa, x1 = 0.1001 | 0.997
313.15 K, 100 kPa, x1 = 0.2001 | 1.278
313.15 K, 100 kPa, x1 = 0.2998 | 1.467
313.15 K, 100 kPa, x1 = 0.3999 | 1.564
313.15 K, 100 kPa, x1 = 0.4996 | 1.585
313.15 K, 100 kPa, x1 = 0.5999 | 1.548
313.15 K, 100 kPa, x1 = 0.7002 | 1.461
313.15 K, 100 kPa, x1 = 0.7992 | 1.328
313.15 K, 100 kPa, x1 = 0.9001 | 1.14
313.15 K, 101 kPa, x1 = 0.0322 | 0.775
313.15 K, 101 kPa, x1 = 0.0731 | 0.903
313.15 K, 101 kPa, x1 = 0.1134 | 1.014
313.15 K, 101 kPa, x1 = 0.1667 | 1.158
313.15 K, 101 kPa, x1 = 0.2308 | 1.297
313.15 K, 101 kPa, x1 = 0.3102 | 1.426
313.15 K, 101 kPa, x1 = 0.4112 | 1.549
313.15 K, 101 kPa, x1 = 0.5449 | 1.614
313.15 K, 101 kPa, x1 = 0.7286 | 1.48
318.15 K, 101 kPa, x1 = 0.0322 | 0.709
318.15 K, 101 kPa, x1 = 0.0731 | 0.819
318.15 K, 101 kPa, x1 = 0.1134 | 0.922
318.15 K, 101 kPa, x1 = 0.1667 | 1.041
318.15 K, 101 kPa, x1 = 0.2308 | 1.165
318.15 K, 101 kPa, x1 = 0.3102 | 1.286
318.15 K, 101 kPa, x1 = 0.4112 | 1.397
318.15 K, 101 kPa, x1 = 0.5449 | 1.453
318.15 K, 101 kPa, x1 = 0.7286 | 1.34
323.15 K, 101 kPa, x1 = 0.0322 | 0.644
323.15 K, 101 kPa, x1 = 0.0731 | 0.742
323.15 K, 101 kPa, x1 = 0.1134 | 0.842
323.15 K, 101 kPa, x1 = 0.1667 | 0.943
323.15 K, 101 kPa, x1 = 0.2308 | 1.052
323.15 K, 101 kPa, x1 = 0.3102 | 1.166
323.15 K, 101 kPa, x1 = 0.4112 | 1.265
323.15 K, 101 kPa, x1 = 0.5449 | 1.316
323.15 K, 101 kPa, x1 = 0.7286 | 1.235

CCNc1ccccc1 + COc1ccccc1
viscosity [mPa·s], 101 kPa
Settings | 293.15 K | 298.15 K | 303.15 K | 308.15 K | 313.15 K | 318.15 K | 323.15 K
x1 = 0.0504 | 1.109 | 1.026 | 0.948 | 0.881 | 0.807 | 0.764 | 0.709
x1 = 0.1074 | 1.15 | 1.059 | 0.977 | 0.907 | 0.83 | 0.784 | 0.727
x1 = 0.1541 | 1.193 | 1.095 | 1.009 | 0.935 | 0.855 | 0.805 | 0.746
x1 = 0.2094 | 1.234 | 1.13 | 1.039 | 0.961 | 0.878 | 0.825 | 0.763
x1 = 0.2506 | 1.275 | 1.164 | 1.067 | 0.985 | 0.9 | 0.844 | 0.78
x1 = 0.3006 | 1.318 | 1.2 | 1.098 | 1.012 | 0.924 | 0.864 | 0.798
x1 = 0.3502 | 1.364 | 1.237 | 1.13 | 1.04 | 0.949 | 0.885 | 0.816
x1 = 0.4029 | 1.416 | 1.279 | 1.166 | 1.071 | 0.976 | 0.908 | 0.837
x1 = 0.4504 | 1.466 | 1.32 | 1.201 | 1.1 | 1.002 | 0.931 | 0.857
x1 = 0.499 | 1.519 | 1.363 | 1.24 | 1.133 | 1.031 | 0.955 | 0.878
x1 = 0.5504 | 1.58 | 1.412 | 1.281 | 1.169 | 1.063 | 0.981 | 0.902
x1 = 0.5911 | 1.64 | 1.461 | 1.322 | 1.204 | 1.094 | 1.007 | 0.924
x1 = 0.6505 | 1.711 | 1.517 | 1.371 | 1.245 | 1.131 | 1.038 | 0.951
x1 = 0.7027 | 1.783 | 1.578 | 1.421 | 1.288 | 1.167 | 1.069 | 0.978
x1 = 0.7493 | 1.853 | 1.635 | 1.47 | 1.331 | 1.203 | 1.098 | 1.004
x1 = 0.7972 | 1.936 | 1.699 | 1.523 | 1.375 | 1.242 | 1.131 | 1.032
x1 = 0.8509 | 2.024 | 1.766 | 1.578 | 1.421 | 1.283 | 1.164 | 1.06
x1 = 0.8913 | 2.103 | 1.831 | 1.632 | 1.466 | 1.322 | 1.196 | 1.087
x1 = 0.9501 | 2.191 | 1.9 | 1.688 | 1.514 | 1.363 | 1.23 | 1.116
